The text below walks through data of PMC3353973 (PLoS ONE, 2012).

In test [1] the target is type 3 HPIV envelope glycoproteins mediated fusion (Human parainfluenza 3 virus, UniProt P06828). Nature of the test: cell-based. Type of test: cell-based, human parainfluenza virus type 3 (HPIV3).
For test [2], the system named is Nipah virus (isolate UMMC1).
The subject of another test is Nipah virus. More on the design: species or system golden hamster (Mesocricetus auratus). The conditions noted are these: hamster, in vivo.
Test [3] deals with Nipah virus envelope glycoproteins mediated fusion (Nipah virus, UniProt Q9IH63). Nature of the test: cell-based. Type of test: cell-based.
Another test has as its system HIV-1 BaL. The conditions noted are these: TZM-bl cells; for IC50: read-out: IC50, inhibition of HIV-1 infectivity, strain BaL, R5 strain BaL, moi 4, luciferase read-out after 48 h.

Where two headings read alike, the source gives them in different places. Numbered stars: 1 amine (or outer) side, 2 acyl side, 3 side chain; on linkers, the order of the positions; unused ones are H or OH. Bridge positions count the residues as written; N and C are the ends. I, II: the chains in the order shown. * marks the point of attachment. X1 = CC(C)CCC[C@@H](C)[C@H]1CC[C@H]2[C@@H]3CC=C4C[C@@H](OCCN(CCNC(=O)CCOCCOCCOCCOCCNC(=O)CCCN5C(=O)CC([*:1])C5=O)CCNC(=O)CCOCCOCCOCCOCCNC(=O)CCCN5C(=O)CC([*:2])C5=O)CC[C@]4(C)[C@H]3CC[C@]12C; Cam = NC(=O)C*

Nipah virus envelope glycoproteins mediated fusion, sequence (Q9IH63 110-546 limits assumed): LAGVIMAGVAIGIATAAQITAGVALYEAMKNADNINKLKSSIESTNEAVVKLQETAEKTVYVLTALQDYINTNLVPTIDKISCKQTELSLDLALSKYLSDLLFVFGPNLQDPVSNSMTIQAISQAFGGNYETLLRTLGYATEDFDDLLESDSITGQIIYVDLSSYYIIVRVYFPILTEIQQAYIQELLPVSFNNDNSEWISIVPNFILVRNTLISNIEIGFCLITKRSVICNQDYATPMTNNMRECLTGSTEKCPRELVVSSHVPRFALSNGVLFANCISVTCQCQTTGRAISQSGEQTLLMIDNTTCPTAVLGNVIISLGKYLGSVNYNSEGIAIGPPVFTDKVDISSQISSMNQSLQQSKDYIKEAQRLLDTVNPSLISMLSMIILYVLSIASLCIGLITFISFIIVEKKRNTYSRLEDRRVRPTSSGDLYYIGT
Nipah virus envelope glycoproteins mediated fusion, sequence (Q9IH63 27-109 partner limits assumed): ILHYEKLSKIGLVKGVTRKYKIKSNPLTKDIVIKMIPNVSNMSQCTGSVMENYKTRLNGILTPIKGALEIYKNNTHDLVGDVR
type 3 HPIV envelope glycoproteins mediated fusion, sequence (P06828 19-109): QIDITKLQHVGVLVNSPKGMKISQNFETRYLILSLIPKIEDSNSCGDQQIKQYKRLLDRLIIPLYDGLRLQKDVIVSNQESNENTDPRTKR
type 3 HPIV envelope glycoproteins mediated fusion, sequence (P06828 110-539): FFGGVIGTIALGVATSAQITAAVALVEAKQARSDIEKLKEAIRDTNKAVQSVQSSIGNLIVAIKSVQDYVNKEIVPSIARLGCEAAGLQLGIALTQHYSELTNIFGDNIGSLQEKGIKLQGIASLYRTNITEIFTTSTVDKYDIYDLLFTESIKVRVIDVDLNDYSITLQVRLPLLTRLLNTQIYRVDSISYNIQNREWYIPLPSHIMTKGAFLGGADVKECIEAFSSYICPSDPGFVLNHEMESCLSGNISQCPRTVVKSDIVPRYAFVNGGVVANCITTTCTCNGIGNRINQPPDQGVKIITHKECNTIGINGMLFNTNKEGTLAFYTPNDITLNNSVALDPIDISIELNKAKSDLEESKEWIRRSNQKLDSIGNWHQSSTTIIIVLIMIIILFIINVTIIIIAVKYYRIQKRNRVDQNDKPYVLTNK

As to “I: Ac-VALDPIDISIVLNKAKSDLEESKEWIRRSNGKLDSIGSGSGC-NH2 / II: Ac-VALDPIDISIVLNKAKSDLEESKEWIRRSNGKLDSIGSGSGC-NH2 (linker I:42-II:42 via X1) [HPIV-P4]”, in test [1], the IC50 was less than 10 nM and the “Relative fusion inhibitory potency in words, HPIV3 fusion” value is “considerably more potent than the cholesterol-tagged monomer”. Moreover, in test [2] (1 h), the IC50 stood at 4.36 ± 1.3 nM. Further, in the test with Nipah virus, the “Onset of illness / lifespan of NiV-infected hamsters” value was “onset of the illness was considerably delayed in the other four, leading to a significantly extended lifespan” and the “Survival of NiV-infected hamsters” value is on record as “survival of one of the five animals”. In addition, in test [3], the “Fold more potent than the cholesterol-tagged monomer (HPIV-P3), NiV fusion” value was “≈ 10 fold” and the IC50 was less than 1 nM.
In the case of “Ac-VALDPIDISIVLNKAKSDLEESKEWIRRSNGKLDSIGSGSGC(Cam)-NH2 [HPIV-P2]”, the IC50 in test [1] and in test [3] was greater than 100 nM each time.
In the case of “Ac-VALDPIDISIVLNKAKSDLEESKEWIRRSNGKLDSI-GSGSG-C(PEG4-Chol)-NH2 [HPIV-P3]”, the “Fold more potent than the untagged inhibitor (HPIV-P2), HPIV3 fusion” value in test [1] is “≈ 10 fold”. Besides, the IC50 is 10 to 100 nM in test [1] (read-out: IC50, inhibition of HPIV3 envelope glycoprotein mediated cell-to-cell fusion); 8.02 ± 0.66 nM in test [2] (read-out: IC50, NiV live virus plaque reduction); 1 to 10 nM in test [3] (read-out: IC50, inhibition of NiV envelope glycoprotein mediated cell-to-cell fusion).
As for `CC[C@H](C)[C@H](NC(=O)[C@H](CC(C)C)NC(=O)[C@H](CO)NC(=O)[C@H](Cc1c[nH]cn1)NC(=O)[C@@H](NC(=O)[C@H](CC(C)C)NC(=O)[C@H](CO)NC(=O)[C@@H](NC(=O)[C@H](Cc1ccc(O)cc1)NC(=O)[C@H](CC(N)=O)NC(=O)[C@H](CC(N)=O)NC(=O)[C@@H](NC(=O)[C@H](CCC(=O)O)NC(=O)[C@H](CCCNC(=N)N)NC(=O)[C@H](CC(=O)O)NC(=O)[C@H](Cc1c[nH]c2ccccc12)NC(=O)[C@H](CCC(=O)O)NC(=O)[C@H](CCSC)NC(=O)[C@H](Cc1c[nH]c2ccccc12)NC(C)=O)[C@@H](C)CC)[C@@H](C)O)[C@@H](C)CC)C(=O)N[C@@H](CCC(=O)O)C(=O)N[C@@H](CCC(=O)O)C(=O)N[C@@H](CO)C(=O)N[C@@H](CCC(N)=O)C(=O)N[C@@H](CC(N)=O)C(=O)N[C@@H](CCC(N)=O)C(=O)N[C@@H](CCC(N)=O)C(=O)N[C@@H](CCC(=O)O)C(=O)N[C@@H](CCCCN)C(=O)N[C@@H](CC(N)=O)C(=O)N[C@@H](CCC(=O)O)C(=O)N[C@@H](CCC(N)=O)C(=O)N[C@@H](CCC(=O)O)C(=O)N[C@@H](CC(C)C)C(=O)N[C@@H](CC(C)C)C(=O)NCC(=O)N[C@@H](CO)C(=O)NCC(=O)N[C@@H](CSC1CC(=O)N(CCCC(=O)NCCOCCOCCOCCOCCC(=O)NCCN(CCNC(=O)CCOCCOCCOCCOCCNC(=O)CCCN2C(=O)CC(SC[C@H](NC(=O)CNC(=O)[C@H](CO)NC(=O)CNC(=O)[C@H](CC(C)C)NC(=O)[C@H](CC(C)C)NC(=O)[C@H](CCC(=O)O)NC(=O)[C@H](CCC(N)=O)NC(=O)[C@H](CCC(=O)O)NC(=O)[C@H](CC(N)=O)NC(=O)[C@H](CCCCN)NC(=O)[C@H](CCC(=O)O)NC(=O)[C@H](CCC(N)=O)NC(=O)[C@H](CCC(N)=O)NC(=O)[C@H](CC(N)=O)NC(=O)[C@H](CCC(N)=O)NC(=O)[C@H](CO)NC(=O)[C@H](CCC(=O)O)NC(=O)[C@H](CCC(=O)O)NC(=O)[C@@H](NC(=O)[C@H](CC(C)C)NC(=O)[C@H](CO)NC(=O)[C@H](Cc3c[nH]cn3)NC(=O)[C@@H](NC(=O)[C@H](CC(C)C)NC(=O)[C@H](CO)NC(=O)[C@@H](NC(=O)[C@H](Cc3ccc(O)cc3)NC(=O)[C@H](CC(N)=O)NC(=O)[C@H](CC(N)=O)NC(=O)[C@@H](NC(=O)[C@H](CCC(=O)O)NC(=O)[C@H](CCCNC(=N)N)NC(=O)[C@H](CC(=O)O)NC(=O)[C@H](Cc3c[nH]c4ccccc34)NC(=O)[C@H](CCC(=O)O)NC(=O)[C@H](CCSC)NC(=O)[C@H](Cc3c[nH]c4ccccc34)NC(C)=O)[C@@H](C)CC)[C@@H](C)O)[C@@H](C)CC)[C@@H](C)CC)C(N)=O)C2=O)CCO[C@H]2CC[C@@]3(C)C(=CC[C@H]4[C@@H]5CC[C@H]([C@H](C)CCCC(C)C)[C@@]5(C)CC[C@@H]43)C2)C1=O)C(N)=O` (stereo partly shown) [HIV-P4], in the test on HIV-1 BaL (ratio of IC50), the “Potency increase versus the untagged HR-derived peptide (HIV-P2), strain BaL” value is listed as 6,000 fold. For the same compound, the IC50 in the test on HIV-1 BaL is 0.01 ± 0.01 nM.
As for `CC[C@H](C)[C@H](NC(=O)[C@H](CC(C)C)NC(=O)[C@H](CO)NC(=O)[C@H](Cc1c[nH]cn1)NC(=O)[C@@H](NC(=O)[C@H](CC(C)C)NC(=O)[C@H](CO)NC(=O)[C@@H](NC(=O)[C@H](Cc1ccc(O)cc1)NC(=O)[C@H](CC(N)=O)NC(=O)[C@H](CC(N)=O)NC(=O)[C@@H](NC(=O)[C@H](CCC(=O)O)NC(=O)[C@H](CCCNC(=N)N)NC(=O)[C@H](CC(=O)O)NC(=O)[C@H](Cc1c[nH]c2ccccc12)NC(=O)[C@H](CCC(=O)O)NC(=O)[C@H](CCSC)NC(=O)[C@H](Cc1c[nH]c2ccccc12)NC(C)=O)[C@@H](C)CC)[C@@H](C)O)[C@@H](C)CC)C(=O)N[C@@H](CCC(=O)O)C(=O)N[C@@H](CCC(=O)O)C(=O)N[C@@H](CO)C(=O)N[C@@H](CCC(N)=O)C(=O)N[C@@H](CC(N)=O)C(=O)N[C@@H](CCC(N)=O)C(=O)N[C@@H](CCC(N)=O)C(=O)N[C@@H](CCC(=O)O)C(=O)N[C@@H](CCCCN)C(=O)N[C@@H](CC(N)=O)C(=O)N[C@@H](CCC(=O)O)C(=O)N[C@@H](CCC(N)=O)C(=O)N[C@@H](CCC(=O)O)C(=O)N[C@@H](CC(C)C)C(=O)N[C@@H](CC(C)C)C(=O)NCC(=O)N[C@@H](CO)C(=O)NCC(=O)N[C@@H](CSCC(N)=O)C(N)=O` [HIV-P2], the IC50 in the test on HIV-1 BaL turned out to be 60.1 ± 84 nM.

As usually defined, the IC50 is the concentration at which inhibition is half-maximal.
